Experimental data reported in patent publication US7217722B2 (Kirin Beer Kabushiki Kaisha, priority 2000, dated 2007).

Columns and labels:
[1] = test system: anti-GBM nephritis model WKY rats; assay: Albuminuria amelioration activity for anti-GBM nephritis model using WKY rats; type: in vivo, rat; settings: 24 hr urine, control group 840.4 ± 82.2
Description: Anti-GBM antibody produced by immunizing domestic rabbits with a rat-derived GBM fraction was caudointravenously administered to WKY male rats of 9 weeks old to induce nephritis. […] During 24 hr from two weeks after the administration of the antibody, urine was collected, and the protein level of urine was measured to observe albuminuria amelioration activity.

[2] = test system: Human-derived histiocyte lymphoma (U937/CCR2); assay: Leukocyte migration inhibitory activity (MCP-1 induced migration, CHEMOTAXICELL); type: cell-based; settings: Homo sapiens, U-937, 1 h, test compound 0.3 μM; U937/CCR2, MCP-1, 1 hr; read-out: Migration inhibition (%) ± SEM
Description: Human-derived histiocyte lymphoma (U937/CCR2), in which mouse-derived CCR2 had been highly expressed, was suspended in a 0.1% BSA-containing RPMI 1640 medium, to which a test compound had been added (5×10^6/ml), and the suspension was incubated for 20 min. A chemical solution (500 μl) (0.1% BSA-containing RPMI 1640 medium DMSO 1%), to which an MCP-1 ligand (1 μM) and the test compound had been added, was added to a 24-well plate. CHEMOTAXICELL was put thereon, and 200 μl of the cell suspension was added to the top layer, followed by migration under 5% carbon dioxide at 37° C. for one hr. The number of cells, which had migrated to the lower chamber, was counted with a particle count analyzer (CDA-500, SYSMEX CORPORATION), and the percentage migration inhibition was calculated by the following equation; Migration inhibition (%)={1−(number of migrated cells in the presence of test compound/number of migrated cells in the absence of test compound)}×100

[3] = test system: spontaneously hypertensive male rats (SHR); assay: Antihypertensive activity in spontaneously hypertensive rats; type: in vivo; settings: Rattus norvegicus, po, 30 mg/kg oral, systolic pressure 6 to 7 hr after administration (data with *), mean ± SEM of 3 to 4 SHRs, read-out: Blood pressure depression, %
Description: This test was carried out as follows. A test compound was dissolved in purified water, or alternatively the test compound was suspended in a 5% aqueous sodium carboxymethylcellulose solution. The solution or the suspension was forcibly administered into the gaster of SHR through an oral probe. The systolic pressure of SHR was measured with a bloodless sphygmometer (BP-98A, Softron Co.) immediately before the administration of the test compound and 3 to 4 hr after the administration of the test compound or 6 to 7 hr after the administration of the test compound. The percentage of blood pressure depression was calculated by the following equation: Antihypertensive activity (%)={(blood pressure before administration of test compound−blood pressure after administration of test compound)/blood pressure before administration of test compound}×100
Each compound was administered at 30 mg/kg, and the antihypertensive activity (%) was expressed in terms of the mean value of 3 to 4 SHRs and SEM (standard error of the mean).
For data with *, the blood pressure was measured 6 to 7 hr after the administration of the test compound, and, for data with no marks, the blood pressure was measured 3 to 4 hr after the administration of the test compound.

[4] = test system: anti-GBM nephritis model S.D. rats; assay: Albuminuria amelioration activity for anti-GBM nephritis model using S.D. rats; type: in vivo, rat; settings: oral 30 mg/kg twice daily, urine 0-24 hr after antibody, control group 794.2 ± 113.2
Description: Anti-GBM antibody produced by immunizing domestic rabbits with a rat-derived GBM fraction was caudointravenously administered to S.D. male rats of 8 weeks old to induce nephritis. Immediately after the administration of the antibody and six hr after the administration of the antibody, the compound of Example 300 was orally administered at 30 mg/kg. Urine was collected in a period between immediately after the administration of the antibody and 24 hr after the administration of the antibody, and the protein level of urine was measured to observe albuminuria amelioration activity.

| Compound | Protein level of urine (mg/kg/day) SEM ([1]; 25 mg/liter together with drinking water for two weeks) [mg/kg/day] | inhibition at 0.3 µM [2] [%] | Protein level of urine (mg/kg/day) SEM ([1]; oral 30 mg/kg twice daily for two weeks) [mg/kg/day] | inhibition in vivo at 30 mg/kg [3] [%] | Protein level of urine (mg/kg/day) ± SEM [4] [mg/kg/day] |
| --- | --- | --- | --- | --- | --- |
| FCCNC1CCC(Nc2ccc3[nH]ncc3c2)CC1 (stereo not drawn) [Example 246, N1-(2-fluoroethyl)-N4-(1H-5-indazolyl)-1,4-cyclohexanediamine] | 220.2 ± 17.7 | 41.9 ± 15.4 |  |  |  |
| Fc1ccc(CN2CCCC(Nc3ccc4[nH]ncc4c3)C2)cc1F (stereo not drawn) [Example 300, N-[1-(3,4-difluorobenzyl)-3-piperidyl)-N-(1H-5-indazolyl)amine] |  | 81.9 ± 11.9 | 602.2 ± 47.3 | 24.1 ± 3.8 | 437.1 ± 95.9 |
